Test results as given in patent US5254550A, “Prolinal derivatives and pharmaceutical compositions thereof” (Ono Pharmaceutical Co., Ltd., priority 1986, dated 1993).
Residues, ends and D or L forms follow the SMILES beside them. *: point of attachment. Cbz = O=C(OCc1ccccc1)*; CH2Cl = ClC*

Target: T1, prolyl endopeptidase (Bos taurus, UniProt Q9XTA2)
T1 construct: prolyl endopeptidase which was purified from bovine brain; from tissue; host or cells: bovine brain (purified by the method of J. Biochem., 94, 1179 (1983))
T1 sequence (Q9XTA2 whole entry): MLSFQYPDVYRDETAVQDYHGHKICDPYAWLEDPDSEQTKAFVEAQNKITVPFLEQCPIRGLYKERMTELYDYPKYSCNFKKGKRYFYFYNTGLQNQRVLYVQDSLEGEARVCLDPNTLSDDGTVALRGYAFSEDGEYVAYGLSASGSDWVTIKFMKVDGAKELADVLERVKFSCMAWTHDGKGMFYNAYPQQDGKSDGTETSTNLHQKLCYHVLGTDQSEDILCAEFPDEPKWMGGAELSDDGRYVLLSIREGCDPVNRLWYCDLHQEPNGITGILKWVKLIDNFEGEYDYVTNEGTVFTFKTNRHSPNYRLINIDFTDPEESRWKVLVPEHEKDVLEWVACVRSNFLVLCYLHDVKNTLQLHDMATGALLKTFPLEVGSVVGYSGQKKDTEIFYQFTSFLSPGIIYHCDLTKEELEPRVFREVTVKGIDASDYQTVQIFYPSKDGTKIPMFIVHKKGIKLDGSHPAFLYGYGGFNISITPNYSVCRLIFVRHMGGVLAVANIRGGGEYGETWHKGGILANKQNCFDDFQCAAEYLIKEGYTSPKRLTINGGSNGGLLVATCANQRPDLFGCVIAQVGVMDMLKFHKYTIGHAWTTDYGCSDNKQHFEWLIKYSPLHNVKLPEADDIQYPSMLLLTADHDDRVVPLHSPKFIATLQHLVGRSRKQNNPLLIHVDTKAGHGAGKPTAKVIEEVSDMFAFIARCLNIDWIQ
Experiment: Prolyl Endopeptidase Inhibitory Activity in Vitro
Type: biochemical
Conditions: prolyl endopeptidase purified from bovine brain; substrate N-benzyloxycarbonyl-glycyl-prolyl-p-nitroanilide; pH 7.5, 37° C., 15 mins preincubation, 405 nm; read-out: Concentration for 50% inhibition IC50
Experimental: Inhibitory activity of prolyl endopeptidase was measured by the following test system.
A mixed solution of 20 mM tris-HCl buffer (pH 7.5; 935 μl; containing 10 mM EDTA and 10 mM mercaptoethanol), a solution of a compound of the present invention in DMSO (10 μl) and a solution of prolyl endopeptidase which was purified from bovine brain (0.13 unit; prepared by the method described in J. Biochem., 94, 1179 (1983)) in tris-HCl buffer (15 μl) was preincubated for 15 mins at 37° C.
To the solution, 5 mM of N-benzyloxycarbonyl-glycyl-prolyl-p-nitroanilide (40 μl) in a mixture of 40% dioxane-60% water was added. The solution was incubated for 1 min at the same temperature.
Optical absorption (a1) at 405 nm of the solution, and optical absorption (a2) at 405 nm of the solution after more 30 mins' incubation at 37° C. were measured.
Optical absorptions (b1 and b2) of the solutions using DMSO instead of the solution of the compound of the present invention were also measured.
Inhibitory ratio was calculated by the following expression and IC50 (required concentration for 50% inhibition) was obtained (See Protein, Nucleic acid and Enzyme 25(6), 513, 1980). [formula]

Structure (SMILES)	IC50 [nM]
O=C[C@@H]1CCCN1C(=O)CCC(=O)NCc1ccccc1Cl [2 (e), N-[3-[N-(2-chlorobenzyl)-carbamoyl]propanoyl]-L-prolinal]	160
O=C[C@@H]1CCCN1C(=O)CCC(=O)NCCc1ccccc1 [Example 1, N-[3-[N-(2-phenylethyl)carbamoyl]propanoyl]-L-prolinal]	130
O=C[C@@H]1CCCN1C(=O)CCC(=O)NCc1ccccc1 [1 (a), N-[3-(N-benzylcarbamoyl)propanoyl)-L-prolinal]	230
CN(Cc1ccccc1)C(=O)C=CC(=O)N1CCC[C@H]1C=O [1 (s), N-[3-(N-benzyl-N-methylcarbamoyl)acryloyl]-L-prolinal]	1900
Cc1ccc(CN(C(=O)CCC(=O)N2CCC[C@H]2C=O)c2ccccc2)cc1 [2 (n), N-[3-[N-(4-methylphenyl-methyl)-N-phenyl-carbamoyl]propanoyl]-L-prolinal]	1.9
O=C[C@@H]1CCCN1C(=O)CCC(=O)NCc1cccc2ccccc12 [2 (y), N-[3-[N-(1-naphthyl-methyl)carbamoyl]propanoyl]-L-prolinal]	43
Cc1ccc(CNC(=O)CCC(=O)N2CCC[C@H]2C=O)cc1 [2 (a), N-[3-[N-(4-methylbenzyl)-carbamoyl]propanoyl]-L-prolinal]	23
O=C[C@@H]1CCCN1C(=O)[C@@H]1CCC[C@H]1C(=O)NCc1ccccc1 [1 (x), N-[(1R,2R)-2-(N-benzylcarbamoyl)cyclopentane-1-carbonyl]-L-prolinal]	14
O=C[C@@H]1CCCN1C(=O)CCC(=O)NCCCCCc1ccccc1 [1 (h), N-[3-[N-(5-phenylpentyl)carbamoyl]propanol]-L-prolinal]	70
O=C[C@@H]1CCCN1C(=O)CCC(=O)NCc1ccco1 [2 (dd), N-[3-[N-(2-furylmethyl)-carbamoyl]propanoyl]-L-prolinal]	790
O=C[C@@H]1CCCN1C(=O)CCC(=O)NCC(c1ccccc1)c1ccccc1 [1 (bb), N-[3-[N-(2,2-diphenylethyl)carbamoyl]propanoyl]-L-prolinal]	1200

Test system: prolyl endopeptidase
Experiment: not given
Conditions: See J. Neurochem., 41, 69 (1983); cited from earlier work

Structure (SMILES)	inhibition of prolyl endopeptidase (in words)
O=C(NCC(=O)N1CCC[C@H]1C(=O)CCl)OCc1ccccc1 [N-benzyloxycarbonyl-glycyl-L-proplyl-chloromethane] (Cbz-Gly-Pro-CH2Cl)	strongly inhibit
